Test results as given in patent EP0492277A2, “Cephalosporin derivatives” (F. HOFFMANN-LA ROCHE AG, priority 1990, dated 1992).

Tests used:
Test in all cases: MIC, Agar Dilution Method
Format in all cases: cell-based
Str. pneumoniae 6301 = tested on: Str. pneumoniae 6301
Procedure: (§1) In vitro activity of the compounds of the present invention was measured by the Minimum Inhibitory Concentration (MIC) in micrograms/ml utilizing the Agar Dilution Method, which is well known in the art, against a variety of gram-negative and gram-positive organisms.

Staph. aureus 67 = tested on: Staph. aureus 67
Procedure: as §1

Ps. aeruginosa 8780 = tested on: Ps. aeruginosa 8780
Procedure: as §1

Cit. freundi BS-16 = tested on: Cit. freundi BS-16
Procedure: as §1

E. coli 257 = tested on: E. coli 257
Procedure: as §1

Prot. mirabilis 90 = tested on: Prot. mirabilis 90
Procedure: as §1

Prot. vulgaris ATCC 6380 = tested on: Prot. vulgaris ATCC 6380
Procedure: as §1

Enter. cloacae P99 = tested on: Enter. cloacae P99
Procedure: as §1

Ps. aeruginosa 18SH = tested on: Ps. aeruginosa 18SH
Procedure: as §1

E. coli ATCC 25922 = tested on: E. coli ATCC 25922
Procedure: as §1

Str. pyogenes 4 = tested on: Str. pyogenes 4
Procedure: as §1

Enter. cloacae 5699 = tested on: Enter. cloacae 5699
Procedure: as §1

Staph. aureus 1059B = tested on: Staph. aureus 1059B
Procedure: as §1

Staph. aureus 753 = tested on: Staph. aureus 753
Procedure: as §1

K. pneumoniae A = tested on: K. pneumoniae A
Procedure: as §1

Ser. marcescens 1071 = tested on: Ser. marcescens 1071
Procedure: as §1

Prot. vulgaris 1028 BC = tested on: Prot. vulgaris 1028 BC
Procedure: as §1

Ps. aeruginosa 765 = tested on: Ps. aeruginosa 765
Procedure: as §1

[1] = tested on: Ps. aeruginosa ATCC 27853
Procedure: as §1

Ps. aeruginosa 5712 = tested on: Ps. aeruginosa 5712
Procedure: as §1

Str. faecalis ATCC 29212 = tested on: Str. faecalis ATCC 29212
Procedure: as §1

Staph. aureus Smith = tested on: Staph. aureus Smith
Procedure: as §1

Staph. aureus ATCC 29213 = tested on: Staph. aureus ATCC 29213
Procedure: as §1

Ser. marcescens SM = tested on: Ser. marcescens SM
Procedure: as §1

E. coli TEM-1 = tested on: E. coli TEM-1
Procedure: as §1

Row | Substance | IN VITRO MIC (Str. pneumoniae 6301) [µg/mL] | IN VITRO MIC (Staph. aureus 67) [µg/mL] | IN VITRO MIC (Ps. aeruginosa 8780) [µg/mL] | IN VITRO MIC (Cit. freundi BS-16) [µg/mL] | IN VITRO MIC (E. coli 257) [µg/mL] | IN VITRO MIC (Prot. mirabilis 90) [µg/mL] | IN VITRO MIC (Prot. vulgaris ATCC 6380) [µg/mL] | IN VITRO MIC (Enter. cloacae P99) [µg/mL] | IN VITRO MIC (Ps. aeruginosa 18SH) [µg/mL] | IN VITRO MIC (E. coli ATCC 25922) [µg/mL] | IN VITRO MIC (Str. pyogenes 4) [µg/mL] | IN VITRO MIC (Enter. cloacae 5699) [µg/mL] | IN VITRO MIC (Staph. aureus 1059B) [µg/mL] | IN VITRO MIC (Staph. aureus 753) [µg/mL] | IN VITRO MIC (K. pneumoniae A) [µg/mL] | IN VITRO MIC (Ser. marcescens 1071) [µg/mL] | IN VITRO MIC (Prot. vulgaris 1028 BC) [µg/mL] | IN VITRO MIC (Ps. aeruginosa 765) [µg/mL] | IN VITRO MIC [1] [µg/mL] | IN VITRO MIC (Ps. aeruginosa 5712) [µg/mL] | other results
1 | [6R-[6a,7β(Z)]]-7-[[(2-Amino-4-thiazolyl)[(carboxymethoxy)imino]acetyl]amino]-3-[[4-(3-carboxy-1-cyclopropyl-6-fluoro-1,4-dihydro-4-oxo-7-quinolinyl)-1-piperazinyl]methyl]-8-oxo-5-thia-1-azabicyclo[4.2.0]-oct-2-ene-2-carboxylic acid sodium salt [Compound B] | 0.25 | 32 | 8 | 1 | 0.25 | 2 | 0.25 | 0.25 | 4 | 0.5 | 0.125 | 1 | 2 | 8 | 1 | 2 | 1 | 8 | 16 | 32 | IN VITRO MIC (Str. faecalis ATCC 29212): 16 µg/mL; IN VITRO MIC (Staph. aureus Smith): 8 µg/mL; IN VITRO MIC (Staph. aureus ATCC 29213): 8 µg/mL; IN VITRO MIC (Ser. marcescens SM): 1 µg/mL; IN VITRO MIC (E. coli TEM-1): 0.5 µg/mL
2 | [6R-[6α,7β(Z)]]-7-[[(2-Amino-4-thiazolyl)[(1-carboxyl-1-methylethoxy)imino]acetyl]amino]-3-[[4-(3-carboxy-1-cyclopropyl-6-fluoro-1,4-dihydro-4-oxo-7-quinolinyl)-1-piperazinyl]methyl]-8-oxo 5-thia-1-azabicyclo[4.2.0]-oct-2-ene-2-carboxylic acid sodium salt [Compound A] | 0.25 | 16 | 8 | 0.125 | 0.25 | 2 | 0.5 | 0.5 | 2 | 0.25 | 0.25 | 1 | 4 | 8 | 0.5 | 1 | 1 | 8 | 8 | 16 | IN VITRO MIC (Str. faecalis ATCC 29212): 8 µg/mL; IN VITRO MIC (Staph. aureus Smith): 8 µg/mL; IN VITRO MIC (Staph. aureus ATCC 29213): 8 µg/mL; IN VITRO MIC (Ser. marcescens SM): 1 µg/mL; IN VITRO MIC (E. coli TEM-1): 0.5 µg/mL
